Experimental findings from ChEMBL document CHEMBL3507680, “University of Dundee, Gates Library screen for HepG2 cell viability” are described below.

The structures appear in SMILES notation.

The nature of this data set: Human HepG2 cell viability assay in 384 well format. It is filed as toxicity, cell-based. Details: dose 125 nL, time 70.5 hour; cytotoxicity at 70.5 h: concentration not given beside the values. The conditions noted are these: HepG2 cells, read-out: Inhibition.
In the case of `COCC1CN(Cc2ccc(OC)cc2)S(=O)(=O)c2cnccc2O1` (configuration not stated), the cytotoxicity at 70.5 h was -3.12%.

Take `COCCN1CCc2ccccc2NCCC1=O`: the cytotoxicity at 70.5 h was -6.61%. As for `O=C(N1CCOCC1)N1C(CN2CCOCC2)[C@]2(O)CC[C@H]1CC2` (some centres not stated), the figure is 3.03%; as for `CNC(=O)CN(C(=O)c1ccccc1)[C@H]1C[C@H]2CCOC[C@H]2C1`, -1.15%; as for `CCN1CC2(CCCCN2C(=O)C2CCCCC2)CC1=O` (configuration not stated), -7.76%. `Cc1cccc(CN2CCc3[nH]nc(C(=O)N4CCOCC4)c3C2)n1`: the cytotoxicity at 70.5 h turned out to be 0.815%. Turning to `N#CC1(C(=O)N2Cc3cc(-c4cc[nH]n4)ccc3C2c2cnco2)CC1` (configuration not stated), the cytotoxicity at 70.5 h is 1.75%. Regarding `COCCNC(=O)c1ccnn1-c1ccc2ccccn12`, the cytotoxicity at 70.5 h is -4.72%. With `COCCCN1CC2(CCCCN2C(=O)COC)CC1=O` (configuration not stated), the cytotoxicity at 70.5 h is -8.44%. As for `CCc1ccc(CN2CCc3[nH]nc(C(=O)N4CCNC(=O)C4)c3C2)o1`, the figure is -11.8%; as for `CN(Cc1cccs1)C1CCC[C@@H]2CN(C(=O)c3cccn3C)C[C@H]12` (some centres not stated), -12.3%; as for `CCN1C[C@@H]2CN(C(=O)C3CC=CC3)C[C@@H]2C1=O`, 28%. As for `CN(C)c1ccc2c(c1)CN(C(=O)c1ccco1)C2c1cnco1` (configuration not stated), the figure is 32.5%. In the case of `CC1N(CC2CC2)C(=O)COC12CCN(C(=O)c1cnccn1)CC2` (configuration not stated), the cytotoxicity at 70.5 h was -5.19%. As for `O=C1COC2(CCN(C(=O)c3cnccn3)CC2)CN1CC1CC1`, the figure is 18.8%; as for `Cc1nc(CN2CCC23CCN(C(=O)c2ccncc2)CC3)cs1`, -9.81%. On to `CN1Cc2ccccc2CC2(CCN(c3ncccn3)CC2)C1=O`, for which the cytotoxicity at 70.5 h was -14.8%.

For the compound `C[C@@H]1C[C@@H]2CCN(Cc3nccs3)C[C@H]2O1`, the cytotoxicity at 70.5 h is -9.1%. Consider `O=C(NC[C@H]1C[C@@H]2CN(C(=O)c3ccno3)C[C@@H]2O1)C1CCC1`, for which the cytotoxicity at 70.5 h was -11.5%.

Take `Cc1noc(C[C@@H]2COC[C@H]3CN(C(=O)C4=CCCC4)C[C@@H]23)n1`: the cytotoxicity at 70.5 h is -13.5%. As for `CN1Cc2ccccc2CC2(CCN(c3ncc(F)cn3)CC2)C1=O`, the figure is -12.1%; as for `CCNC(=O)N1CCC2(CC1)CCn1c(C3CC3)cnc12`, 30.6%. With `CCN(C)C(=O)c1cnc(-c2noc3cc(N4CCCCC4)ccc23)s1`, the cytotoxicity at 70.5 h turned out to be 30.7%. On to `COc1cccc(-c2cnc3n2CCC32CCN(S(C)(=O)=O)CC2)c1`, for which the cytotoxicity at 70.5 h is -2.2%. As for `O=C(NC1CC1)c1cnc(-c2noc3cc(N4CCCCC4)ccc23)s1`, the figure is -0.737%. Take `Cc1nnc([C@H]2C[C@H]3OCC[C@H]3N(S(=O)(=O)C3CC3)C2)o1`: the cytotoxicity at 70.5 h stood at 5.23%. As for `Cc1nnc([C@H]2C[C@H]3OCC[C@H]3N(S(=O)(=O)CC(C)C)C2)o1`, the figure is -1.29%; as for `O=C(C1CC(F)(F)C1)N1CC[C@H]2OCC[C@@]2(COCC2CC2)C1`, -1.76%; as for `Cc1ccccc1C(=O)N1C[C@@H]2C[C@@H](C)O[C@@H]2C1`, -8.1%.

With `O=C(c1cnc(-c2noc3cc(N4CCCC4)ccc23)s1)N1CCCC1`, the cytotoxicity at 70.5 h was -4.44%.

Consider `CCNC(=O)N1CCC2(CC1)CCn1c(-c3cccc(OC)c3)cnc12`, for which the cytotoxicity at 70.5 h was -6.74%. As for `Cn1cnc2c1C(C(=O)N1CCCO1)N(C(=O)c1ccccc1)CC2` (configuration not stated), the figure is -9.14%; as for `O=C(NC1CC1)[C@H]1COC[C@H]2CN(c3ncc(F)cn3)C[C@H]21`, -8.95%. As for `CNC(=O)C1CCC2(CCN(c3ncc(C)cn3)CC2)CO1` (configuration not stated), the figure is 4.35%; as for `CC(C)CN1C[C@H]2C[C@H](C(=O)NCc3cccnc3)[C@@H](C1)O2`, 2.54%.

As to `CC(C)OC[C@H]1CCC[C@]12CN(S(=O)(=O)c1cccs1)CCO2`, the cytotoxicity at 70.5 h is -8.77%. As for `COC[C@@H]1CCC[C@]12CN(S(=O)(=O)c1cccs1)CCO2`, the figure is -4.17%; as for `COCCN1C[C@@H]2OCCN(c3ccnc(N(C)C)n3)[C@@H]2C1`, 0.722%; as for `COCC(=O)N1CCCn2c(CN3CCCC3=O)nnc2C1`, -8.38%. As for `Cc1cnc(N2CCC3(CCCN(c4ncc(F)cn4)C3)C2)nc1` (configuration not stated), the figure is -5.99%.

For the compound `Cc1nc(CN2C(=O)COC3(CCN(C(N)=O)CC3)C2C)cs1` (configuration not stated), the cytotoxicity at 70.5 h came to 3.95%. As for `COCC1CN(Cc2cccc(C#N)c2)Cc2nccn2C1` (configuration not stated), the figure is 1.24%. As for `COc1cccc(CC(=O)N2Cc3nccn3CC(CN(C)C)C2)c1` (configuration not stated), the figure is -0.154%.

Regarding `CCOCC(=O)N1CCCn2c(CN3CCOCC3)nnc2C1`, the cytotoxicity at 70.5 h is 2.86%.

For the compound `COCCN1C2(CCN(C(=O)c3cccs3)C2)c2ccccc2S1(=O)=O` (configuration not stated), the cytotoxicity at 70.5 h was 2.42%. As for `CCOCC(=O)N1CCCn2c(CN3CCCCC3)nnc2C1`, the figure is -1.12%.

As for `c1ccc(N2CCOCC3(CCCN(c4nccs4)C3)C2)nc1` (configuration not stated), the cytotoxicity at 70.5 h is 4.3%. As for `NC(=O)N1CC[C@@H]2O[C@@H](COCC(=O)N3CCCC3)CC[C@@H]21`, the figure is 24%; as for `Cc1ccc(CS(=O)(=O)N2CC[C@H]3[C@H]2CC(=O)N3C)cc1`, -10.2%.

Turning to `CNC(=O)N1CCC2(CC1)CN(C(C)C)Cc1cc(F)ccc12`, the cytotoxicity at 70.5 h is -2.71%. As for `O=C(O)c1c(NC2CCC2)ncc2c1CCN(C1CCOC1)C2` (configuration not stated), the figure is -6.13%; as for `Cc1ccc(N2CCN(CC3CC3)C3(CCN(C(C)C)CC3)C2=O)cn1`, -5.52%.

Turning to `Cc1ccc(CN2CCc3[nH]nc(C(=O)N4CCNC(=O)C4)c3C2)s1`, the cytotoxicity at 70.5 h was 3.82%. As for `Cn1ccnc1NC[C@@H]1CCC[C@@H]2CN(Cc3nccs3)C[C@@H]21`, the figure is -0.236%; as for `CC(C)n1c(C(=O)N2CCCC2)nc2c1CCN(C)C2`, -5.23%; as for `CN1CCc2c(CNc3ncccn3)n[nH]c2C1`, 49.1%. As for `CN(C)C[C@H]1C[C@@H]2CN(C(=O)c3ccno3)C[C@@H]2O1`, the figure is -16.7%. As for `Cn1nc(Cn2cccc2)c2c1CN(Cc1ccoc1)C2`, the figure is 21.4%; as for `O=C(c1ccccc1)N1CCO[C@@H]2CN(c3cnccn3)C[C@@H]2C1`, -12.3%; as for `CC(C)N1CCC2(CCCN(C(=O)c3cncn3C)C2)CC1`, -12%. For `Cc1nc(CN2C(=O)CC3(CCN(C(N)=O)CC3)c3ccccc32)cs1`, the cytotoxicity at 70.5 h is -2.82%. For the compound `c1cncc(C2CC3(CCN(c4cnccn4)CC3)c3ccccc32)c1` (configuration not stated), the cytotoxicity at 70.5 h is -1.15%.

As to `c1cnc(N2CC3(CCN(CC4CCOC4)CC3)c3ccccc32)nc1` (configuration not stated), the cytotoxicity at 70.5 h amounted to 0.807%. As for `c1cnc(N2CC3(CCN(C4CCOCC4)CC3)c3ccccc32)nc1`, the figure is -0.647%; as for `O=C([C@H]1COC[C@H]2CN(c3ncc(F)cn3)C[C@H]21)N1CCOCC1`, -7.81%; as for `CCC(=O)N1CCC2(CCC(N3CCCC3)c3ccccc32)CC1` (configuration not stated), -6.38%.

On to `Cc1cnc(N2C[C@@H]3[C@@H](C2)OCC(=O)N3CCN(C)C)nc1`, for which the cytotoxicity at 70.5 h is -3.72%. For `Cc1nnc([C@]23COC[C@H]2CN(Cc2cccs2)C3)o1`, the cytotoxicity at 70.5 h stood at 27.6%. In the case of `O=C(c1ccnnc1)N1C[C@@H]2C[C@@H](c3nc(C4CC4)cs3)O[C@@H]2C1`, the cytotoxicity at 70.5 h was -3.56%. As for `CN(C)Cc1cn2c(n1)CN(C(=O)Cc1ccsc1)CC2`, the figure is -0.503%. For `CN(C)CC1CN(C(=O)CCc2ccccc2)Cc2nccn2C1` (configuration not stated), the cytotoxicity at 70.5 h stood at 1.84%.

Consider `O=C(c1ccc2ccccc2n1)N1CCC2(CCN2c2ncccn2)C1` (configuration not stated), for which the cytotoxicity at 70.5 h was 2.64%. As for `Cc1noc([C@@H]2C[C@H]3OCC[C@H]3N(C(C)C)C2)n1`, the figure is 6.58%; as for `O=C1NC2(CCN(C(=O)N3CCOCC3)CC2)CC1c1cccnc1` (configuration not stated), 3.42%.

For `Cc1ccc(CN2Cc3c(C(=O)N4CCCC4)nn(C)c3C2)s1`, the cytotoxicity at 70.5 h was found to be 22.4%. As for `COCCN1CC[C@@H]2OC(COCC(=O)N3CCCC3)CC[C@@H]21` (some centres not stated), the figure is -3.03%; as for `CS(=O)(=O)NCc1cnc2n1CCN(Cc1ccco1)CC2`, -6.2%; as for `Cc1nc(CO[C@@H]2CN(Cc3cccs3)[C@@H]3COC[C@@H]32)cs1`, -9.88%.

In the case of `Cc1ccc(CN2C[C@@H](OCc3csc(C)n3)[C@H]3COC[C@H]32)s1`, the cytotoxicity at 70.5 h was -10.6%. As for `Cc1nnc([C@@H]2CC[C@@H]3[C@@H](CCN3Cc3ccccn3)O2)o1`, the figure is 10.5%; as for `CN(C)CC(=O)N1CCC2(CCc3ccc(-c4ccncc4)cc32)CC1`, 3.66%. As for `Cn1nc(Cn2ccnc2)c2c1CN(Cc1ccoc1)C2`, the figure is 24.7%; as for `Cn1nc(CN2CCCCC2)c2c1CN(Cc1ccoc1)C2`, -7.22%. On to `Cc1cc(C(=O)N2CCCC3(COCCN(c4ncccn4)C3)C2)[nH]n1` (configuration not stated), for which the cytotoxicity at 70.5 h is -6.04%. For the compound `O[C@@H]1CCN(CC2CCOC2)[C@H]1Cc1cccnc1` (some centres not stated), the cytotoxicity at 70.5 h was -12.1%. As for `CS(=O)(=O)N[C@@H]1CCN(Cc2nccs2)[C@H]1Cc1ccncc1`, the figure is -13.1%; as for `CC(C)CNC(=O)[C@H]1C[C@@H]2CN(Cc3cccnc3)C[C@H]1O2`, -2.17%; as for `c1cnc(N2CCCC3(CCN(c4ncccn4)C3)C2)nc1` (configuration not stated), 26.5%. As for `CN(C)CC1CN(Cc2cccc(C#N)c2)Cc2nccn2C1` (configuration not stated), the figure is -6.48%; as for `CN(C)CCOCC1CN(Cc2cccc(F)c2)Cc2nccn2C1` (configuration not stated), -4.81%; as for `CCN(CC)CC1CN(Cc2cccc(C#N)c2)Cc2nccn2C1` (configuration not stated), 5.06%.

With `CN(C)CCN1CC[C@@H]2O[C@@H](COCC(=O)N3CCCC3)CC[C@@H]21`, the cytotoxicity at 70.5 h was -0.268%.
